Measured values: PubChem BioAssay AID624119 (National Center for Advancing Translational Sciences (NCATS), 2012)

Target: Cytochrome P450 2D6 (Homo sapiens) (UniProt P10635)
Assay: qHTS Assay for Inhibitors of Bacillus subtilis Sfp phosphopantetheinyl transferase (PPTase): CYP 2D6
Details: CYP2D6 inhibition, single concentration 3 uM; at 3 µM; hits give high values
Excerpt: The covalent attachment of a phosphopantetheinyl (4'-PP) arm to a variety of synthases and other proteins is a key posttranslational protein modification. The 4'-PP is installed on the proteins post-translationally from coenzyme A (CoA) on a conserved serine residue by action of phosphopantetheinyl transferase (PPTase) enzymes. Phosphopantetheinylation is essential for synthase activity, and removal of the PPTase gene precludes natural product synthesis in microorganisms, or in the case of fatty acid biosynthesis, renders the organism unviable. PPTase enzymes belong to a distinct structural superfamily. Within bacteria, these enzymes are grouped into two classes based upon primary structure, the AcpS-Type and Sfp-Type PPTases.
Sfp-type PPTases, corresponding to an activator of surfactin production in Bacillus subtilis, are responsible for modifying type I polyketide and nonribosomal peptide synthases of prokaryotes. Sfp-type PPTases are responsible for the activation of a variety of pathogen-associated virulence factors. Among these compounds are toxins such as mycolactone from Mycobacterium ulcerans, siderophores such as vibriobactin from Vibrio cholerae or mycobactin from Mycobacterium tuberculosis, as well as the mycolic acids which form the waxy cell wall of Mycobacteria. The biosyntheses of these natural products are considered attractive targets for drug design. […]

Cytochrome P450 2D6 (Homo sapiens), sequence (P10635 whole entry, looked up): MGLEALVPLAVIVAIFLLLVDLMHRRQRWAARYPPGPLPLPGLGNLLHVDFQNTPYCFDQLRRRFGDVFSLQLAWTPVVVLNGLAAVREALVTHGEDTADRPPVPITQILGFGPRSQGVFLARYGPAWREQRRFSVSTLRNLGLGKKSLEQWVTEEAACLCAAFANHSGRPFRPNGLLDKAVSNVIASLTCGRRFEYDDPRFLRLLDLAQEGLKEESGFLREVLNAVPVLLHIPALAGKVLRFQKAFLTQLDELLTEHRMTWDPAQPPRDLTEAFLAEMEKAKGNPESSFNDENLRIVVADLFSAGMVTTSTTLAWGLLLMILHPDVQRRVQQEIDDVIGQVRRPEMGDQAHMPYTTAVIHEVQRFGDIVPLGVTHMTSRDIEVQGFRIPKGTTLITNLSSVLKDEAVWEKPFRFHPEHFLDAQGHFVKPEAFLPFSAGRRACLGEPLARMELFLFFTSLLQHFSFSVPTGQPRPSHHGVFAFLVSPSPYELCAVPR

Question: For COc1ccnc(NC(=S)N2CCN(c3ncc(C(F)(F)F)cc3Cl)CC2)c1, which inhibition is on record?
Answer: 25%
